Source: patent publication US20120053180A1, “CYCLOHEXANE ANALOGUES AS GPR119 AGONISTS” (CHEMIZON, A DIVISION OF OPTOMAGIC CO., LTD., priority 2010, published 2012)

Target: T1, GPR119 (Homo sapiens, UniProt Q8TDV5)
T1 sequence (Q8TDV5 1-335): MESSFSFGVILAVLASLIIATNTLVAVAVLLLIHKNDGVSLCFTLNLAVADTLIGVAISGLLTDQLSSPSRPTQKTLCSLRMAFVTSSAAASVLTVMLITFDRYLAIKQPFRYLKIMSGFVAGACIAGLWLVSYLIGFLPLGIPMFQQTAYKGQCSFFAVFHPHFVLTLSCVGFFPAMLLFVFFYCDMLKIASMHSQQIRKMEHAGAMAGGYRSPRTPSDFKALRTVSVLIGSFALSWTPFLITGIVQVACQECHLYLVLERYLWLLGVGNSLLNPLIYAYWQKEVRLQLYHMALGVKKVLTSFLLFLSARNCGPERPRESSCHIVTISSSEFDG
Test: cAMP assays of selected examples (stimulation of cAMP)
Format: cell-based
Details: '>200 nM'
Source text: Camp Assays of Selected Examples

EC50	SMILES
> 200 nM	CS(=O)(=O)c1ccc(OCc2cn(C3CCC(Oc4ncccn4)CC3)nn2)cc1 (centres unmarked)
> 200 nM	Cc1cnc(OC2CCC(n3cc(COc4ccc(S(C)(=O)=O)cc4)nn3)CC2)nc1 (centres unmarked)
> 200 nM	CCc1cnc(OC2CCC(n3cc(COc4ccc(S(C)(=O)=O)cc4)nn3)CC2)nc1 (centres unmarked)
> 200 nM	CCc1cnc(OC2CCC(c3nc(CNc4ccc(S(C)(=O)=O)cc4)cs3)CC2)nc1 (centres unmarked)

Same assay, conditions: <200 nM

SMILES	EC50
CCc1cnc(OC2CCC(c3nc(COc4ccc(-n5cnnn5)cc4)cs3)CC2)nc1 (centres unmarked)	< 200 nM
CCc1cnc(OC2CCC(Oc3c(F)cc(-c4ccc(S(C)(=O)=O)cc4)cc3F)CC2)nc1 (centres unmarked)	< 200 nM

Next, values leading:

EC50	SMILES
< 200 nM	CCc1cnc(OC2CCC(c3nc(COc4ccc(S(C)(=O)=O)cc4)cs3)CC2)nc1 (centres unmarked)
< 200 nM	CCc1cnc(OC2CCC(c3nc(COc4ccc(S(C)(=O)=O)cc4F)cs3)CC2)nc1 (centres unmarked)
